Legend:
[1] = tested on: human intestinal Caco-2 cells; conditions: cited from earlier work
[2] = tested on: LDLR on HepG2 cell surface; test: In-cell western (ICW), LDLR on HepG2 surface in the presence of PCSK9; format: cell-based, human; conditions: 50 µM + PCSK9 4 µg/mL; Figure 3B
Experimental: For the experiments, a total of 3 × 10^4 HepG2 cells/well were seeded in 96-well plates and treated with 4.0 μg/mL PCSK9-WT and 4.0 μg/mL PCSK9 + peptides P5 and/or P5 analogs (50 µM) and vehicle (H2O) for 2 h at 37 °C under 5% CO2 atmosphere. Thus, cells underwent to ICW assay following conditions already optimized. See Supplementary Materials for detailed information. […]
cLex Co., Nagano, Japan). The peptides (P5, P5-Best, P-H6A, and P5-S7A) were synthe-sized by the company GeneScript (Piscataway, NJ, USA) at >95% purity. The antibody against HMG-CoAR was bought from Abcam (Cambridge, UK). […]
HMG-CoAR Aactivity Assay. […] Subsequently, the samples were mixed and the absorbance at 340 nm read by the microplate reader Synergy H1 (Winooski, VT, USA) at time 0 and 10 min. The HMG-CoAR-dependent oxidation of NADPH and the inhibition properties of peptides were measured by absorbance reduction, which is directly proportional to enzyme activ- […]
In Vitro PCSK9-LDLR Binding Assay. […] The reaction was stopped with 2.0 M sulfuric acid and the absorbance at 450nm was measured using the Synergy H1 fluorescent plate reader […]

LILPKHSDAD [Peptide P5, natural peptide derived from a peptic lupin protein hydrolysate]
metabolism during Caco-2 transport [1]: partially metabolized in a breakdown fragment (LPKHSDAD, P5-met)
transport by differentiated Caco-2 cells [1]: successfully transported
LDLR level on cell surface in presence of PCSK9 [2]: restored
